# Data: the NIST ThermoML archive (doi:10.1016/j.fluid.2005.02.014)
# ± gives the expanded uncertainty stated by the source.
# Details: Liquid; for mass density: 298.15 K, 101.33 kPa
Structure (SMILES),mass density,Normal boiling temperature,mass density (Vibrating tube method)
CC(C)CCl [1-chloro-2-methylpropane],870.94 ± 0.99 kg/m3,68.90 ± 0.26 °C,–
CCCCCl [1-chlorobutane],880.67 ± 0.6 kg/m3,78.37 ± 0.26 °C,–
CC(C)(C)Cl [2-chloro-2-methylpropane],836.45 ± 0.65 kg/m3,50.73 ± 0.26 °C,–
CCC(C)Cl (stereo not given) [2-chlorobutane],867.26 ± 0.62 kg/m3,68.11 ± 0.26 °C,–
C1CCOCC1 [tetrahydropyran],–,88.08 ± 0.26 °C,878.8 ± 0.5 kg/m3
